In patent US10894797B2, “Fused tricyclic ring derivatives as SRC homology-2 phosphatase inhibitors” (Nikang Therapuetics, Inc., priority 2018, dated 2021):

target: SHP2 (Homo sapiens (Human), UniProt Q06124); test: SHP2 allosteric inhibition assay (DiFMUP substrate, bisphos-IRS1 peptide activation); type: biochemical; settings: 0.33 nM SHP2, 0.5 μM bisphos-IRS1 peptide, 100 uM DiFMUP, room temperature
Experimental: At the basal state, SHP2 is auto-inhibited and access of substrates to the catalytic site is blocked by the […] interactions between the SH2 domains and the PTP domain. When bis-tyrosyl-phosphorylated peptides bind to SH2 domain of SHP2, the PTP domain becomes available for substrate recognition and reaction catalysis and SHP2 is allosterically activated. SHP2 catalytic activity can be measured using a fluorogenic artificial substrate DiFMUP.
The phosphatase reactions were carried out at room temperature in 384-well black polystyrene plates (Greiner Bio-One, Cat #784076) using assay buffers containing 60 mM HEPES, pH 7.2, 75 mM NaCl, 75 mM KCl, 1 mM EDTA, 0.05% P-20, and 5 mM DTT.
0.33 nM of SHP2 was co-incubated with of 0.5 μM of bisphos-IRS 1 peptide (sequence: H2N-LN(pY)IDLDLV(dPEG8)LST(pY)ASINFQK-amide) and various concentrations of compounds for 30-60 min at room temperature. Then the reaction was initiated by addition of the surrogate substrate DiFMUP (Invitrogen, Cat #D6567, 100 uM final).
The real-time conversion of DiFMUP to DiFMU (6,8-difluoro-7-hydroxyl-4-methyl-coumarin) was measured every 5 min for 30 min using a microplate reader (CLARIOstar, BMG Labtech) with excitation and emission wavelengths of 340 nm and 450 nm, respectively. Initial reaction rates were determined by linear fitting of the data and the inhibitor dose response curves were analyzed using normalized IC50 regression curve fitting with control-based normalization.

Compound | IC50
COCOC[C@H]1C[C@H]2COc3c(Sc4cnc(N5CCC6(CC5)CO[C@@H](C)[C@H]6N)cn4)ccnc3N2C1 [Compound 42, (3S,4S)-8-(5-(((6aS,8S)-8-((methoxymethoxy)methyl)-6a,7,8,9-tetrahydro-6H-pyrido[3,2-b]pyrrolo[1,2-d][1,4]oxazin-4-yl)thio)pyrazin-2-yl)-3-methyl-2-oxa-8-azaspiro[4.5]decan-4-amine] | 5.9 nM
COCOC[C@H]1C[C@H]2COc3c(Sc4ncc(N5CCC6(CC5)CO[C@@H](C)[C@H]6N)nc4N)ccnc3N2C1 [Compound 44, (3S,4S)-8-(6-amino-5-(((6aS,8S)-8-((methoxymethoxy)methyl)-6a,7,8,9-tetrahydro-6H-pyrido[3,2-b]pyrrolo[1,2-d][1,4]oxazin-4-yl)thio)pyrazin-2-yl)-3-methyl-2-oxa-8-azaspiro[4.5]decan-4-amine] | 5.9 nM
COC[C@H]1C[C@H]2COc3c(Sc4ncc(N5CCC6(CC5)CO[C@@H](C)[C@H]6N)nc4N)ccnc3N2C1 [Compound 45, (3S,4S)-8-(6-amino-5-(((6aS,8S)-8-(methoxymethyl)-6a,7,8,9-tetrahydro-6H-pyrido[3,2-b]pyrrolo[1,2-d][1,4]oxazin-4-yl)thio)pyrazin-2-yl)-3-methyl-2-oxa-8-azaspiro[4.5]decan-4-amine] | 9.4 nM
COCOC[C@H]1C[C@H]2COc3c(Sc4ncc(N5CCC6(CC5)Cc5ncccc5[C@H]6N)nc4N)ccnc3N2C1 [Compound 47, (S)-1′-(6-amino-5-(((6aS,8S)-8-((methoxymethoxy)methyl)-6a,7,8,9-tetrahydro-6H-pyrido[3,2-b]pyrrolo[1,2-d][1,4]oxazin-4-yl)thio)pyrazin-2-yl)-5,7-dihydrospiro[cyclopenta[b]pyridine-6,4′-piperidin]-5-amine] | 8.4 nM
COCOC[C@H]1C[C@H]2COc3c(Sc4nc(CO)c(N5CCC6(CC5)CO[C@@H](C)[C@H]6N)nc4C)ccnc3N2C1 [Compound 49, (3-((3S,4S)-4-amino-3-methyl-2-oxa-8-azaspiro[4.5]decan-8-yl)-6-(((6aS,8S)-8-((methoxymethoxy)methyl)-6a,7,8,9-tetrahydro-6H-pyrido[3,2-b]pyrrolo[1,2-d][1,4]oxazin-4-yl)thio)-5-methylpyrazin-2-yl)methanol] | 12 nM
COCOC[C@H]1C[C@@H]2COc3c(Sc4cnc(N5CCC6(CC5)CO[C@@H](C)[C@H]6N)c(CO)n4)ccnc3N2C1 [Compound 51, (3-((3S,4S)-4-amino-3-methyl-2-oxa-8-azaspiro[4.5]decan-8-yl)-6-(((6aR,8S)-8-((methoxymethoxy)methyl)-6a,7,8,9-tetrahydro-6H-pyrido[3,2-b]pyrrolo[1,2-d][1,4]oxazin-4-yl)thio)pyrazin-2-yl)methanol] | 4.9 nM

Now those with a lower IC50, led by results:

IC50 | Compound
4.5 nM | COC[C@H]1C[C@H]2COc3c(Sc4cnc(N5CCC6(CC5)CO[C@@H](C)[C@H]6N)cn4)ccnc3N2C1 [Compound 43, (3S,4S)-8-(5-(((6aS,8S)-8-(methoxymethyl)-6a,7,8,9-tetrahydro-6H-pyrido[3,2-b]pyrrolo[1,2-d][1,4]oxazin-4-yl)thio)pyrazin-2-yl)-3-methyl-2-oxa-8-azaspiro[4.5]decan-4-amine]
3.9 nM | COCOC[C@H]1C[C@H]2COc3c(Sc4cnc(N5CCC6(CC5)Cc5ncccc5[C@H]6N)cn4)ccnc3N2C1 [Compound 46, (S)-1′-(5-(((6aS,8S)-8-((methoxymethoxy)methyl)-6a,7,8,9-tetrahydro-6H-pyrido[3,2-b]pyrrolo[1,2-d][1,4]oxazin-4-yl)thio)pyrazin-2-yl)-5,7-dihydrospiro[cyclopenta[b]pyridine-6,4′-piperidin]-5-amine]
3.3 nM | COCOC[C@H]1C[C@H]2COc3c(Sc4cnc(N5CCC6(CC5)Cc5ncccc5[C@H]6N)c(CO)n4)ccnc3N2C1 [Compound 48, (3-((S)-5-amino-5,7-dihydrospiro[cyclopenta[b]pyridine-6,4′-piperidin]-1′-yl)-6-(((6aS,8S)-8-((methoxymethoxy)methyl)-6a,7,8,9-tetrahydro-6H-pyrido[3,2-b]pyrrolo-[1,2-d][1,4]oxazin-4-yl)thio)pyrazin-2-yl)methanol]
3.5 nM | COCOC[C@@H]1C[C@H]2COc3c(Sc4cnc(N5CCC6(CC5)CO[C@@H](C)[C@H]6N)c(CO)n4)ccnc3N2C1 [Compound 50, (3-((3S,4S)-4-amino-3-methyl-2-oxa-8-azaspiro[4.5]decan-8-yl)-6-(((6aS,8R)-8-((methoxymethoxy)methyl)-6a,7,8,9-tetrahydro-6H-pyrido[3,2-b]pyrrolo[1,2-d][1,4]oxazin-4-yl)thio)pyrazin-2-yl)methanol]
3.7 nM | COCOC[C@@H]1C[C@@H]2COc3c(Sc4cnc(N5CCC6(CC5)CO[C@@H](C)[C@H]6N)c(CO)n4)ccnc3N2C1 [Compound 52, (3-((3S,4S)-4-amino-3-methyl-2-oxa-8-azaspiro[4.5]decan-8-yl)-6-(((6aR,8R)-8-((methoxymethoxy)methyl)-6a,7,8,9-tetrahydro-6H-pyrido[3,2-b]pyrrolo[1,2-d][1,4]oxazin-4-yl)thio)pyrazin-2-yl)methanol]
